Assay results reported in PubChem BioAssay AID1259407 (Chemical Carcinogenesis Research Information System (CCRIS), 2018).
The source made the active and inactive calls. How the calls were made is not given here.

System: CCRIS mutagenicity, Ames/micronucleus/aberration tests
Assay: CCRIS mutagenicity studies

O=c1c(O)c(-c2ccc(O)c(O)c2)oc2cc(O)cc(O)c12
mutagenic call (End Point: IN VIVO MICRONUCLEUS, Test System: BONE MARROW POLYCHROMATIC ERYTHROCYTES, Species: MOUSE, Strain/Sex: DDY/MALE, Route: IP): inactive; negative | mutagenic call (End Point: In vivo micronucleus, Test System: Bone marrow polychromatic erythrocytes, Species: Rat, Strain/Sex: Wistar/Male, Route: Oral (gavage)): inactive; negative | mutagenic call (Test System: AMES SALMONELLA TYPHIMURIUM, Strain/Indicator: TA97, Metabolic Activation: NONE, Method: STANDARD PLATE): active; positive | mutagenic call (Test System: AMES SALMONELLA TYPHIMURIUM, Strain/Indicator: TA97A, Metabolic Activation: NONE, Method: STANDARD PLATE): active; positive | mutagenic call (Test System: AMES SALMONELLA TYPHIMURIUM, Strain/Indicator: TA97A, Metabolic Activation: RAT, LIVER, S9, AROCLOR 1254, Method: STANDARD PLATE): active; positive | mutagenic call (Test System: AMES SALMONELLA TYPHIMURIUM, Strain/Indicator: TA98, Metabolic Activation: HAMSTER, LIVER, S9, AROCLOR 1254 (30%), Method: PREINCUBATION): active; positive | mutagenic call (Test System: AMES SALMONELLA TYPHIMURIUM, Strain/Indicator: TA98, Metabolic Activation: NONE, Method: FLUCTUATION (MICROTITER)): active; positive | mutagenic call (Test System: AMES SALMONELLA TYPHIMURIUM, Strain/Indicator: TA98, Metabolic Activation: NONE, Method: PREINCUBATION): active; positive | mutagenic call (Test System: AMES SALMONELLA TYPHIMURIUM, Strain/Indicator: TA98, Metabolic Activation: NONE, Method: STANDARD PLATE): active; positive | mutagenic call (Test System: AMES SALMONELLA TYPHIMURIUM, Strain/Indicator: TA98, Metabolic Activation: RAT, LIVER, CYTOSOL, Method: PREINCUBATION): active; positive | mutagenic call (Test System: AMES SALMONELLA TYPHIMURIUM, Strain/Indicator: TA98, Metabolic Activation: RAT, LIVER, S9, 5,6-BENZOFLAVONE AND/OR SODIUM PHENOBARBITAL, Method: PREINCUBATION): active; positive | mutagenic call (Test System: AMES SALMONELLA TYPHIMURIUM, Strain/Indicator: TA98, Metabolic Activation: RAT, LIVER, S9, AROCLOR 1254 (30%), Method: PREINCUBATION): active; positive | mutagenic call (Test System: AMES SALMONELLA TYPHIMURIUM, Strain/Indicator: TA98, Metabolic Activation: RAT, LIVER, S-9, PHENOBARBITAL, Method: STANDARD PLATE): active; positive | mutagenic call (Test System: AMES SALMONELLA TYPHIMURIUM, Strain/Indicator: TA98, Metabolic Activation: S9, GLUCOSE-6-PHOSPHATE AND NADP, Method: STANDARD PLATE): active; positive | mutagenic call (Test System: AMES SALMONELLA TYPHIMURIUM, Strain/Indicator: TA98, Metabolic Activation: S9, Method: STANDARD PLATE): active; positive | mutagenic call (Test System: AMES SALMONELLA TYPHIMURIUM, Strain/Indicator: TA98, Metabolic Activation: S-100, GLUCOSE-6-PHOSPHATE AND NADP, Method: STANDARD PLATE): active; positive | mutagenic call (Test System: AMES SALMONELLA TYPHIMURIUM, Strain/Indicator: TA98, Metabolic Activation: S-100, Method: STANDARD PLATE): active; positive | mutagenic call (Test System: AMES SALMONELLA TYPHIMURIUM, Strain/Indicator: TA100, Metabolic Activation: HAMSTER, LIVER, S9, AROCLOR 1254 (30%), Method: PREINCUBATION): active; positive | mutagenic call (Test System: AMES SALMONELLA TYPHIMURIUM, Strain/Indicator: TA100, Metabolic Activation: NONE, Method: PREINCUBATION): active; positive | mutagenic call (Test System: AMES SALMONELLA TYPHIMURIUM, Strain/Indicator: TA100, Metabolic Activation: NONE, Method: STANDARD PLATE): active; positive | mutagenic call (Test System: AMES SALMONELLA TYPHIMURIUM, Strain/Indicator: TA100, Metabolic Activation: RAT, LIVER, S9, AROCLOR 1254 (30%), Method: PREINCUBATION): active; positive | mutagenic call (Test System: AMES SALMONELLA TYPHIMURIUM, Strain/Indicator: TA100, Metabolic Activation: RAT, LIVER, S-9, PHENOBARBITAL, Method: STANDARD PLATE): active; positive | mutagenic call (Test System: AMES SALMONELLA TYPHIMURIUM, Strain/Indicator: TA102, Metabolic Activation: RAT, LIVER, S9, AROCLOR 1254, Method: STANDARD PLATE): active; positive | mutagenic call (Test System: AMES SALMONELLA TYPHIMURIUM, Strain/Indicator: TA1535, Metabolic Activation: NONE, Method: STANDARD PLATE): inactive; negative | mutagenic call (Test System: AMES SALMONELLA TYPHIMURIUM, Strain/Indicator: TA1537, Metabolic Activation: NONE, Method: FLUCTUATION (MICROTITER)): active; positive | mutagenic call (Test System: AMES SALMONELLA TYPHIMURIUM, Strain/Indicator: TA1538, Metabolic Activation: NONE, Method: STANDARD PLATE): active; positive | mutagenic call (Test System: AMES SALMONELLA TYPHIMURIUM, Strain/Indicator: TA7001, Metabolic Activation: NONE, Method: FLUCTUATION (MICROTITER)): inactive; negative | mutagenic call (Test System: AMES SALMONELLA TYPHIMURIUM, Strain/Indicator: TA7002, Metabolic Activation: NONE, Method: FLUCTUATION (MICROTITER)): active; positive | mutagenic call (Test System: AMES SALMONELLA TYPHIMURIUM, Strain/Indicator: TA7003, Metabolic Activation: NONE, Method: FLUCTUATION (MICROTITER)): inactive; negative | mutagenic call (Test System: AMES SALMONELLA TYPHIMURIUM, Strain/Indicator: TA7004, Metabolic Activation: NONE, Method: FLUCTUATION (MICROTITER)): active; positive | mutagenic call (Test System: AMES SALMONELLA TYPHIMURIUM, Strain/Indicator: TA7005, Metabolic Activation: NONE, Method: FLUCTUATION (MICROTITER)): active; positive | mutagenic call (Test System: AMES SALMONELLA TYPHIMURIUM, Strain/Indicator: TA7006, Metabolic Activation: NONE, Method: FLUCTUATION (MICROTITER)): inactive; negative | mutagenic call (Test System: Ames Salmonella typhimurium, Strain/Indicator: TA98, Metabolic Activation: None, Method: Standard plate): active; positive | mutagenic call (Test System: Ames Salmonella typhimurium, Strain/Indicator: TA98, Metabolic Activation: Rat, Liver, S9, Aroclor 1254, Method: Standard plate): active; positive | mutagenic call (Test System: Ames Salmonella typhimurium, Strain/Indicator: TA100, Metabolic Activation: None, Method: Standard plate): active; positive | mutagenic call (Test System: Ames Salmonella typhimurium, Strain/Indicator: TA100, Metabolic Activation: Rat, Liver, S9, Aroclor 1254, Method: Standard plate): active; positive | mutagenic call (Test System: Ames Salmonella typhimurium, Strain/Indicator: TA102, Metabolic Activation: Fe ++ (1 uM) with NADPH generating system, Method: Preincubation): active; positive | mutagenic call (Test System: Ames Salmonella typhimurium, Strain/Indicator: TA102, Metabolic Activation: None, Method: Preincubation): active; positive | mutagenic call (Test System: Ames Salmonella typhimurium, Strain/Indicator: TA102, Metabolic Activation: Rat, Liver, S9, Aroclor 1254, Method: Preincubation): active; positive | mutagenic call (Test System: Ames Salmonella typhimurium, Strain/Indicator: TA102, Metabolic Activation: Rat, Liver, S-9, Aroclor 1254 in 0.154 M KCl, Method: Preincubation): active; positive | mutagenic call (Test System: E. coli, Strain/Indicator: WP2 uvrA, Metabolic Activation: Fe ++ (1 uM) with NADPH generating system, Method: Preincubation): active; positive | mutagenic call (Test System: E. coli, Strain/Indicator: WP2 uvrA, Metabolic Activation: None, Method: Preincubation): active; positive | mutagenic call (Test System: E. coli, Strain/Indicator: WP2 uvrA, Metabolic Activation: Rat, Liver, S9, Aroclor 1254, Method: Preincubation): active; positive | mutagenic call (Test System: UDS RAT GASTRIC MUCOSAL CELLS, Strain/Indicator: THY INCORP, Metabolic Activation: NONE, Method: LIQUID SCINTILLATION COUNTING): inactive; negative | mutagenic call (Test System: UDS Rat hepatocytes, Strain/Indicator: Wistar (Male and female), Method: Autoradiography): inactive; negative

Cc1ccc2cc3c4c(ccc3c3c2c1CC3)C=C[C@H](O)[C@H]4O
mutagenic call (Test System: CHINESE HAMSTER V-79, Strain/Indicator: V-79/8-AZAGUANINE, Metabolic Activation: NONE, Method: STANDARD PLATE): active; positive
